Results on 29 compounds are retold here after patent US20250084074A1, “SUBSTITUTED HETEROCYCLES AS HSET INHIBITORS” (MERCK PATENT GMBH, priority 2022, published 2025).

pIC50: −log10 of the molar value. Structures can show the parent of a compound that is named as a salt.

Sequence of HSET full length protein (Q9BW19 whole entry): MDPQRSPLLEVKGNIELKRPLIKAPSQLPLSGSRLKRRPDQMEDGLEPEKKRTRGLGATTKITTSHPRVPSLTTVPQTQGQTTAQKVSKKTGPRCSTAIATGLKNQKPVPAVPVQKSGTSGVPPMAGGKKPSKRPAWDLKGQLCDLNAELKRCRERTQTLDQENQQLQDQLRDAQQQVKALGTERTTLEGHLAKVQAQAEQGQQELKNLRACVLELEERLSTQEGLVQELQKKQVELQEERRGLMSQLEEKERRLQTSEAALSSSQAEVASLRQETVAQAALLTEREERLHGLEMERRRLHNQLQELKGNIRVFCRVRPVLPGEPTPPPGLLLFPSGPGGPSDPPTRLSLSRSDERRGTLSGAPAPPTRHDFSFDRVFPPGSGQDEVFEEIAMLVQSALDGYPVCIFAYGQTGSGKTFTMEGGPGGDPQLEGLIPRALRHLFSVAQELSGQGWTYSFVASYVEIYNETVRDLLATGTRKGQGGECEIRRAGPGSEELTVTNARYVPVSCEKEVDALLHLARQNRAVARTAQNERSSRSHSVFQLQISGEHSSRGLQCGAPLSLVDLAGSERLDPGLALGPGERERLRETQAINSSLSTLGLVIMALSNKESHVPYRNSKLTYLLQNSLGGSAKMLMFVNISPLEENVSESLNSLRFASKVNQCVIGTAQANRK

This assay addresses HSET full length protein (Homo sapiens (Human), UniProt Q9BW19). As to the kind of experiment: HSET ADP-Glo Assay S - 3 μM ATP. In kind it is biochemical. The settings on record: 5 nM HSET, 70 μg/mL microtubule, 80 min at rt, read-out: COMBINED HSET ADP GLO IC50. The gist of the method: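 ADP-Glo luminescence read-out: ATPase reaction at 3 μM ATP, 80 min at room temperature, after a 10 min compound preincubation. Enzyme was full-length human HSET at 5 nM, stimulated by 70 μg/mL paclitaxel-stabilised bovine microtubules in HEPES pH 6.8 buffer with MgCl2, EGTA, Triton X-100 and DTT.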
On to `Cc1nc(-c2ccc3ccnc(N[C@H]4C[C@@H](C(=O)Nc5nc(C)c(C(C)(C)C)s5)C4)c3c2)no1` [Example 98, (1 s,3s)-N-(5-(tert-butyl)-4-methylthiazol-2-yl)-3-((7-(5-methyl-1,2,4-oxadiazol-3-yl)isoquinolin-1-yl)amino)cyclobutane-1-carboxamide], for which the pIC50 is 7.14. The same measure for `CCCOC(=O)c1sc(NC(=O)[C@H]2C[C@@H](Nc3nccc4ccc(-c5noc(C)n5)cc34)C2)nc1C` [Example 99, Propyl4-methyl-2-((1s,3s)-3-((7-(5-methyl-1,2,4-oxadiazol-3-yl)isoquinolin-1-yl)amino)cyclobutane-1-carboxamido)thiazole-5-carboxylate]: 8.15; for `Cc1nc(-c2ccc3ccnc(N[C@H]4C[C@@H](C(=O)Nc5cc(C(C)(C)C)on5)C4)c3c2)no1` [Example 100, (1 s,3s)-N-(5-(tert-butyl)isoxazol-3-yl)-3-((7-(5-methyl-1,2,4-oxadiazol-3-yl)isoquinolin-1-yl)amino)cyclobutane-1-carboxamide]: 6.08. To `CCCCCc1cc(NC(=O)[C@H]2C[C@@H](Nc3nccc4ccc(-c5noc(C)n5)cc34)C2)nn1C` [Example 101, (1s,3s)-3-((7-(5-methyl-1,2,4-oxadiazol-3-yl)isoquinolin-1-yl)amino)-N-(1-methyl-5-pentyl-1 H-pyrazol-3-yl)cyclobutane-1-carboxamide] belongs 6.56. For `Cc1nc(-c2ccc3ccnc(N[C@H]4C[C@@H](C(=O)Nc5cc(C)c(CC(C)C)s5)C4)c3c2)no1` [Example 102, (1s,3s)-N-(5-isobutyl-4-methylthiophen-2-yl)-3-((7-(5-methyl-1,2,4-oxadiazol-3-yl)isoquinolin-1-yl)amino)cyclobutane-1-carboxamide formate], the negative-log IC50 (pIC50) is 6.39.

In the case of `Cc1nc(-c2ccc3ccnc(N[C@H]4C[C@@H](C(=O)Nc5nc(C)c(C(F)(F)F)s5)C4)c3c2)no1` [Example 103, (1s,3s)-3-((7-(5-methyl-1,2,4-oxadiazol-3-yl)isoquinolin-1-yl)amino)-N-(4-methyl-5-(trifluoromethyl)thiazol-2-yl)cyclobutane-1-carboxamide], the negative logarithm of the IC50 (pIC50) is 6.17. The same measure for `Cc1nc(-c2cccc(C(=O)N[C@H]3C[C@@H](C(=O)Nc4nc(C)c(C(=O)OC(C)(C)C)s4)C3)c2)no1` [Example 104, tert-Butyl 4-methyl-2-((1s,3s)-3-(3-(5-methyl-1,2,4-oxadiazol-3-yl)benzamido)cyclobutane-1-carboxamido)thiazole-5-carboxylate]: 7.03; for `Cc1nc(NC(=O)[C@H]2C[C@@H](NC(=O)c3cccc(-c4ncon4)c3)C2)sc1C(=O)OC(C)(C)C` [Example 105, tert-Butyl 2-((1s,3s)-3-(3-(1,2,4-oxadiazol-3-yl)benzamido)cyclobutane-1-carboxamido)-4-methylthiazole-5-carboxylate]: 5.80.

`Cc1nnc(-c2cccc(C(=O)N[C@H]3C[C@@H](C(=O)Nc4nc(C)c(C(=O)OC(C)(C)C)s4)C3)c2)o1` [Example 106, tert-Butyl 4-methyl-2-((1s,3s)-3-(3-(5-methyl-1,3,4-oxadiazol-2-yl)benzamido)cyclobutane-1-carboxamido)thiazole-5-carboxylate]: the pIC50 is 6.88.

Turning to `Cc1nc(NC(=O)[C@H]2C[C@@H](NC(=O)c3cccc(-c4nnn(C)n4)c3)C2)sc1C(=O)OC(C)(C)C` [Example 107, tert-Butyl-4-methyl-2-((1s,3s)-3-(3-(2-methyl-2H-tetrazol-5-yl)benzamido)cyclobutane-1-carboxamido)thiazole-5-carboxylate], the pIC50 is 7.39. The same measure for `Cc1nc(NC(=O)[C@H]2C[C@@H](Nc3nccc4ccc(Cl)cc34)C2)sc1C(=O)OC(C)(C)C` [Example 108, tert-Butyl 2-((1s,3s)-3-((7-chloroisoquinolin-1-yl)amino)cyclobutane-1-carboxamido)-4-methylthiazole-5-carboxylate]: 5.79; for `Cc1nc(NC(=O)[C@H]2C[C@@H](Nc3nccc4ccc(C(F)(F)F)cc34)C2)sc1C(=O)OC(C)(C)C` [Example 109, tert-Butyl 4-methyl-2-((1s,3s)-3-((7-(trifluoromethyl)isoquinolin-1-yl)amino)cyclobutane-1-carboxamido)thiazole-5-carboxylate]: 5.75; for `Cc1nc(-c2ccc3ccnc(N[C@H]4C[C@@H](C(=O)Nc5nc(C)c(C(=O)OC(C)(C)C)s5)C4)c3c2)no1` [Example 110, tert-Butyl 4-methyl-2-[[3-[[7-(5-methyl-1,2,4-oxadiazol-3-yl)-1-isoquinolyl]amino]cyclobutanecarbonyl]amino]thiazole-5-carboxylate]: 8.10.

With `Cc1nc(-c2ccc3ccnc(N[C@H]4C[C@@H](C(=O)N(C)c5nc(C)c(C(=O)OC(C)(C)C)s5)C4)c3c2)no1` [Example 111, tert-Butyl 4-methyl-2-[methyl-[3-[[7-(5-methyl-1,2,4-oxadiazol-3-yl)-1-isoquinolyl]amino]cyclobutanecarbonyl]amino]thiazole-5-carboxylate], the pIC50 was 7.17. The same measure for `Cc1nc(-c2ccc3ccnc(N[C@H]4C[C@@H](C(=O)Nc5nc(Cl)c(C(=O)OC(C)(C)C)s5)C4)c3c2)no1` [Example 112, tert-Butyl 4-chloro-2-[[3-[[7-(5-methyl-1,2,4-oxadiazol-3-yl)-1-isoquinolyl]amino]cyclobutanecarbonyl]amino]thiazole-5-carboxylate]: 7.27. The same measure for `Cc1nc(-c2ccc3ccnc(N[C@H]4C[C@@H](C(=O)Nc5nc(Cl)c(C(=O)NC(C)(C)C)s5)C4)c3c2)no1` [Example 113, N-tert-butyl-4-chloro-2-[[3-[[7-(5-methyl-1,2,4-oxadiazol-3-yl)-1-isoquinolyl]amino]cyclobutanecarbonyl]amino]thiazole-5-carboxamide]: 5.86; for `CCOC(=O)c1sc(NC(=O)[C@H]2C[C@@H](Nc3nccc4ccc(-c5noc(C)n5)cc34)C2)nc1C(F)F` [Example 116, Ethyl-4-(difluoromethyl)-2-[[3-[[7-(5-methyl-1,2,4-oxadiazol-3-yl)-1-isoquinolyl]amino]cyclobutanecarbonyl]amino]thiazole-5-carboxylate]: 6.84. To `Cc1ccc2ccnc(N[C@H]3C[C@@H](C(=O)Nc4nc(C)c(C(C)(C)C)s4)C3)c2c1` [Example 117, N-(5-tert-butyl-4-methyl-thiazol-2-yl)-3-[(7-methyl-1-isoquinolyl)amino]cyclobutanecarboxamide] belongs 5.02.

For `Cc1noc(-c2sc(NC(=O)CCNC(=O)c3cccc(-c4noc(C)n4)c3)nc2C)n1` [Example 118, 3-(5-methyl-1,2,4-oxadiazol-3-yl)-N-(3-((4-methyl-5-(3-methyl-1,2,4-oxadiazol-5-yl)thiazol-2-yl)amino)-3-oxopropyl)benzamide], the pIC50 is 5.08. Take `CCCOC(=O)c1cc(NC(=O)CCNC(=O)c2cccc(-c3noc(C)n3)c2)nn1C` [Example 120, Propyl-1-methyl-3-(3-(3-(5-methyl-1,2,4-oxadiazol-3-yl)benzamido)propanamido)-1 H-pyrazole-5-carboxylate]: the pIC50 was 6.80. Take `CCCOC(=O)c1sc(N(C)C(=O)CCNC(=O)c2cccc(-c3noc(C)n3)c2)nc1C` [Example 121, Propyl-4-methyl-2-(N-methyl-3-(3-(5-methyl-1,2,4-oxadiazol-3-yl)benzamido)propanamido)thiazole-5-carboxylate]: the pIC50 is 7.44. The same measure for `Cc1nc(-c2cccc(C(=O)NCCC(=O)Nc3nc(C)c(C(=O)OC4CCCC4)s3)c2)no1` [Example 122, Cyclopentyl-4-methyl-2-(3-(3-(5-methyl-1,2,4-oxadiazol-3-yl)benzamido)propanamido)thiazole-5-carboxylate]: 7.57.

With `CCCCCCOC(=O)c1sc(NC(=O)CCNC(=O)c2cccc(-c3noc(C)n3)c2)nc1C` [Example 123, Hexyl-4-methyl-2-(3-(3-(5-methyl-1,2,4-oxadiazol-3-yl)benzamido)propanamido)thiazole-5-carboxylate], the pIC50 is 8.05.

Regarding `Cc1nc(-c2cccc(C(=O)NCCC(=O)Nc3nc(C)c(C(=O)OC4CCCCC4)s3)c2)no1` [Example 124, Cyclohexyl-4-methyl-2-(3-(3-(5-methyl-1,2,4-oxadiazol-3-yl)benzamido)propanamido)thiazole-5-carboxylate], the pIC50 was 7.85. As to `Cc1nc(-c2cccc(C(=O)NCCC(=O)Nc3nc(C)c(C(=O)OCCCCN)s3)c2)no1` [Example 125, 4-aminobutyl 4-methyl-2-(3-(3-(5-methyl-1,2,4-oxadiazol-3-yl)benzamido)propanamido)thiazole-5-carboxylate hydrochloride], the pIC50 was 5.25. With `COc1ccc(CCCOC(=O)c2sc(NC(=O)CCNC(=O)c3cccc(-c4noc(C)n4)c3)nc2C)cc1` [Example 126, 3-(4-methoxyphenyl)propyl 4-methyl-2-(3-(3-(5-methyl-1,2,4-oxadiazol-3-yl)benzamido)propanamido)thiazole-5-carboxylate], the pIC50 was 7.41. To `COCCOCCCCOC(=O)c1sc(NC(=O)CCNC(=O)c2cccc(-c3noc(C)n3)c2)nc1C` [Example 127, 4-(2-methoxyethoxy)butyl 4-methyl-2-(3-(3-(5-methyl-1,2,4-oxadiazol-3-yl)benzamido)propanamido)thiazole-5-carboxylate] belongs 7.26. Turning to `COC(=O)c1cc(NC(=O)CCNC(=O)c2cccc(-c3noc(C)n3)c2)nn1C` [Example 128, Methyl-2-methyl-5-[3-[[3-(5-methyl-1,2,4-oxadiazol-3-yl)benzoyl]amino]propanoylamino]pyrazole-3-carboxylate], the pIC50 was 4.85. To `CCCC(C)c1sc(NC(=O)CCNC(=O)c2cccc(-c3noc(C)n3)c2)nc1C` (centres unmarked) [Example 129, 3-(5-methyl-1,2,4-oxadiazol-3-yl)-N-(3-((4-methyl-5-(pentan-2-yl)thiazol-2-yl)amino)-3-oxopropyl)benzamide] belongs 5.95.
